Laboratory results reported in US11299485B2, “Thiophene derivative and use thereof” (FUJIMOTO CO., LTD., priority 2018, dated 2022).

Experiments:
Type in all cases: cell-based
MM.1S cells = assay: Human myeloma cell line MM.1S proliferation suppression test; conditions: MM1.S, 72 h, compound 10 μM, 3 days, WST-1 or WST-8, read-out: cell survival rate (% of control) MM.1S
How it was run: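 Cells at 2×10^5 cells/mL in RPMI1640 + 10% FCS, mixed 1:1 with compound diluted from DMSO stock (final 10 μM) versus DMSO-only control. Cultured 3 days at 37 °C, 5% CO2; proliferation read with WST-1 or WST-8.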

Daudi cells = assay: Human Burkitt lymphoma cell line Daudi proliferation suppression test; conditions: 72 h, compound 10 μM, 3 days, WST-8, read-out: cell survival rate (% of control) Daudi
How it was run: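 Daudi cells plated at 1.3×10^5 cells/mL and cultured overnight at 37° C., 5% CO2, then given test compound at final 10 μM (DMSO vehicle control). After 3 days' culture, proliferation was read by WST-8.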

Kasumi-7 cells = assay: Human acute lymphoblastic leukemia cell line Kasumi-7 proliferation suppression test; conditions: 72 h, compound 10 μM, 3 days, WST-8, read-out: cell survival rate (% of control) Kasumi-7
How it was run: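 Cells seeded at 1.3×10^5 cells/mL in RPMI1640 with 20% FCS, cultured overnight at 37°C, 5% CO2, then treated with compound at 10 μM final; DMSO vehicle control. Proliferation read by WST-8 after 3 days' culture.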

[1] = system: human peripheral blood mononuclear cells (PBMC); assay: Cytotoxicity test using human peripheral blood mononuclear cells (PBMC); conditions: compound 10 μg/mL, LPS, 24 hr, WST-1 or WST-8
Procedure: Example 56: Cytotoxicity Test Using Human Peripheral Blood Mononuclear Cells (PBMC)
Peripheral blood of a healthy adult was collected in a Venoject II vacuum blood collection tube (Terumo, containing EDTA/2Na), and then diluted two-fold with an equal volume of OTSUKA NORMAL SALINE (Otsuka Pharmaceutical Co., Ltd.). The diluted blood was mixed with Lymphoprep (AXIS-SHIELD) in half the volume of the diluted blood, dispensed into a 15 mL conical tube, and centrifuged at room temperature for 20 min (2,100 rpm). The mononuclear cells accumulated at the interface between Lymphoprep and plasma was transferred to a 50 mL conical tube, diluted with OTSUKA NORMAL SALINE, and the mononuclear cells suspension was centrifuged at room temperature for 10 min (1,150 rpm) and then the supernatant was removed. The mononuclear cells fraction obtained as a precipitate was suspended in an appropriate amount of medium A, and diluted as appropriate with 0.4% trypan blue solution (Sigma-Aldrich Co. LLC.). The number of viable cells was counted with a hemocytometer (ERMA INC.). It was diluted with medium A such that the value obtained was 5×10^5 cells/mL. On the other hand, 37.5 μL of medium A, 2.5 μL of 0.4 mg/mL test compound solution (DMSO solution 10-fold diluted with medium A), and 10 μL of 10 μg/mL lipopolysaccharide (Sigma-Aldrich Co. LLC.) solution (diluted with medium A) were each added in advance to the same well of a Falcon 96-well flat bottom plate (Corning Incorporated), and the above-mentioned cell suspension was dispensed at 50 μL/well (final concentration of test compound 10 μg/mL). 2.5 μL of DMSO diluted 10-fold with medium A was added to the control well instead of the compound solution. After culturing at 37° C. in a 5% CO2 stream for 24 hr, the cell survival rate was measured using WST-1 (DOJINDO LABORATORIES) or WST-8 kit (KISHIDA CHEMICAL Co., Ltd.) and according to each instruction manual attached thereto.

| Structure (SMILES) | viability at 10 µM (MM.1S cells) [%] | viability at 10 µM (Daudi cells) [%] | viability at 10 µM (Kasumi-7 cells) [%] | cell survival rate (% of control) PBMC [1] |
| --- | --- | --- | --- | --- |
| O=C1CCC(n2cc(-c3cscc3OCc3ccccn3)nn2)C(=O)N1 (stereo not drawn) [compound 34, 3-{4-[4-(pyridin-2-ylmethoxy)thiophen-3-yl]-1H-1,2,3-triazol-1-yl}piperidine-2,6-dione] | 50 | 48 | 45 | 95 % of control |
| O=C1CCC(n2cc(-c3cscc3OCc3ccc(Cl)cc3)nn2)C(=O)N1 (stereo not drawn) [compound 43, 3-{4-[4-(4-chlorobenzyloxy)thiophen-3-yl]-1H-1,2,3-triazol-1-yl}piperidine-2,6-dione] | 30 | 36 | 42 | 98 % of control |
| O=C1CCC(n2cc(-c3cccs3)nn2)C(=O)N1 (stereo not drawn) [compound 3, 3-[4-(thiophen-2-yl)-1H-1,2,3-triazol-1-yl]piperidine-2,6-dione] | 59 | 78 | 81 | 89 % of control |
| COc1c(-c2cn(C3CCC(=O)NC3=O)nn2)csc1Cl (stereo not drawn) [compound 22, 3-[4-(5-chloro-4-methoxythiophen-3-yl)-1H-1,2,3-triazol-1-yl]piperidine-2,6-dione] | 73 | 81 | 82 | 132 % of control |
| Cl.O=C1CCC(n2cc(-c3cscc3OCc3ccc(CCN4CCOCC4)cc3)nn2)C(=O)N1 (stereo not drawn) [compound 45, 3-(4-{4-[4-(2-morpholinoethyl)benzyloxy]thiophen-3-yl}-1H-1,2,3-triazol-1-yl)piperidine-2,6-dione hydrochloride] | 31 | 40 | 39 | 110 % of control |
| O=C1CCC(n2cc(-c3scc4c3OCCO4)nn2)C(=O)N1 (stereo not drawn) [compound 10, 3-[4-(2,3-dihydrothieno[3,4-b][1,4]dioxin-5-yl)-1H-1,2,3-triazol-1-yl]piperidine-2,6-dione] | 78 | 85 | 72 | 97 % of control |
| O=C1CCC(n2nnc(-c3ccsc3)c2Br)C(=O)N1 (stereo not drawn) [compound 48, 3-[5-bromo-4-(thiophen-3-yl)-1H-1,2,3-triazol-1-yl]piperidine-2,6-dione] | 85 | 80 | 95 | 138 % of control |
| O=C1CCC(n2cc(-c3cscc3OCc3ccccc3CN3CCOCC3)nn2)C(=O)N1 (stereo not drawn) [compound 40, 3-(4-{4-[2-(morpholinomethyl)benzyloxy]thiophen-3-yl}-1H-1,2,3-triazol-1-yl)piperidine-2,6-dione] | 35 | 46 | 41 | 96 % of control |
| COc1cscc1-c1cn(C2CCC(=O)NC2=O)nn1 (stereo not drawn) [compound 19, 3-[4-(4-methoxythiophen-3-yl)-1H-1,2,3-triazol-1-yl]piperidine-2,6-dione] | 24 | 4 | 24 | 99 % of control |
| O=C1CCC(n2cc(-c3cscc3OC3CCCC3)nn2)C(=O)N1 (stereo not drawn) [compound 27, 3-{4-[4-(cyclopentyloxy)thiophen-3-yl]-1H-1,2,3-triazol-1-yl}piperidine-2,6-dione] | 82 | 70 | 83 | 107 % of control |
| COCc1ccc(COc2cscc2-c2cn(C3CCC(=O)NC3=O)nn2)cc1 (stereo not drawn) [compound 37, 3-(4-{4-[4-(methoxymethyl)benzyloxy]thiophen-3-yl}-1H-1,2,3-triazol-1-yl)piperidine-2,6-dione] | 24 | 20 | 38 | 99 % of control |
| COc1c(-c2cn(C3CCC(=O)NC3=O)nn2)csc1Br (stereo not drawn) [compound 23, 3-[4-(5-bromo-4-methoxythiophen-3-yl)-1H-1,2,3-triazol-1-yl]piperidine-2,6-dione] | 75 | 76 | 76 | 104 % of control |
| O=C1CCC(n2cc(-c3cscc3OCc3cccnc3)nn2)C(=O)N1 (stereo not drawn) [compound 35, 3-{4-[4-(pyridin-3-ylmethoxy)thiophen-3-yl]-1H-1,2,3-triazol-1-yl}piperidine-2,6-dione] | 55 | 67 | 53 | 100 % of control |
| CC(C)Oc1cscc1-c1cn(C2CCC(=O)NC2=O)nn1 (stereo not drawn) [compound 26, 3-[4-(4-isopropoxythiophen-3-yl)-1H-1,2,3-triazol-1-yl]piperidine-2,6-dione] | 40 | 51 | 50 | 42 % of control |
| CC(=O)c1ccc(-c2cn(C3CCC(=O)NC3=O)nn2)s1 (stereo not drawn) [compound 8, 3-[4-(5-acetylthiophen-2-yl)-1H-1,2,3-triazol-1-yl]piperidine-2,6-dione] | 94 | 93 | 94 | 97 % of control |
